Assay results: US20050239791A1, “Substituted 1-heteroaryl-4-substituted piperazine and piperidine analogues” (priority 2004, published 2005)
Like-named read-outs stand apart in the source and are kept apart here.

Molecular target: MCH receptor (Macaca fascicularis, UniProt A0A2K5VT41)
Test: Calcium mobilization assay (Example 6)
Assay type: cell-based, Cynomolgus macaque
Text: This Example illustrates a representative functional assay for monitoring the response of cells expressing melanin concentrating hormone receptors to melanin concentrating hormone. This assay can also be used to determine if test compounds act as agonists or antagonists of melanin concentrating hormone receptors.
Chinese Hamster Ovary (CHO) cells (American Type Culture Collection; Manassas, Va.) are stably transfected with the MCH expression vector via calcium phosphate precipitation, and are grown to a density of 15,000 cells/well in FALCON™ black-walled, clear-bottomed 96-well plates (#3904, BECTON-DICKINSON, Franklin Lakes, N.J.) in Ham's F12 culture medium (MEDIATECH, Herndon, Va.) supplemented with 10% fetal bovine serum, 25 mM HEPES and 500 μg/mL (active) G418. Prior to running the assay, the culture medium is emptied from the 96 well plates. […]
Fluorescence response is monitored upon the addition of either […] or test compound by a FLIPR™ plate reader (Molecular Devices, Sunnyvale, Calif.) by excitation at 480 nm and emission at 530 nm.
In order to measure the ability of a test compound to antagonize the response of cells expressing MCH receptors to MCH, the EC50 of MCH is first determined. […]
Test compounds are dissolved in DMSO, diluted in 20 μL KRH buffer, and added to cells prepared as described above. […] Just prior to determining the fluorescence response, 100 μL human MCH diluted in KRH buffer to 2×EC50 is automatically added by the FLIPR instrument to each well of the 96 well plate for a final sample volume of 200 μL and a final MCH concentration of EC50. […] Typically, antagonists of the MCH receptor decrease the fluorescence response by about 20%, preferably by about 50%, and most preferably by at least 80% as compared to matched controls. IC50 values for MCHR antagonists are determined using SIGMAPLOT software (SPSS Inc., Chicago, Ill.) and standard techniques. […]

Chain of MCH receptor (A0A2K5VT41 70-422): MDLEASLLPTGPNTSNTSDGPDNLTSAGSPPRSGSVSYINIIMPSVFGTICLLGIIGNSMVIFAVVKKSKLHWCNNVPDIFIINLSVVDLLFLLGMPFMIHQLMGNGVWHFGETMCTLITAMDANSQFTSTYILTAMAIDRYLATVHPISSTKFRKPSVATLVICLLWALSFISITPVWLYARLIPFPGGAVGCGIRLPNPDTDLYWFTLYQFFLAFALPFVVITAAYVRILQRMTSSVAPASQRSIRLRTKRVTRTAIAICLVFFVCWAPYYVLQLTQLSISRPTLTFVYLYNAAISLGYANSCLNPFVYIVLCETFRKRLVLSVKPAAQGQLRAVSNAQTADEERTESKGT

| SMILES | EC50 [µM] | EC50 (calcium mobilization (FLIPR, Fluo-3) in CHO cells stably transfected with the MCH expression vector, read-out: EC50, determined as described in Example 6) [µM] |
| --- | --- | --- |
| COc1cc(N2CCN(C(C)c3ccnc(C)c3C)CC2)ccc1Cl (stereo not drawn) [Example 1, 1-(4-chloro-3-methoxyphenyl)-4-[1-(2,3-dimethylpyridin-4-yl)-ethyl]-piperazine] | < 1 | – |
| COc1cc(N2CCN(C(C)c3ccnc4ccccc34)CC2)ccc1Cl (stereo not drawn) [Example 2, 4-{1-[4-(4-chloro-3-methoxyphenyl)piperazin-1-yl]ethyl}quinoline] | < 1 | – |
| Cc1nccc(CN2CCC(O)(c3ccc(Cl)c(C(F)(F)F)c3)CC2)c1C [Example 3, 4-(4-chloro-3-trifluoromethylphenyl)-1-(2,3-dimethyl-pyridin-4-ylmethyl)-piperidin-4-ol] | – | < 1 |
